# Results reported in US10188653B2, “Diacylglycerol acyltransferase 2 inhibitors” (Pfizer Inc., priority 2014, dated 2019).
# Biological target: hDGAT2 (Homo sapiens (Human), UniProt Q96PD7)
# Assay: In vitro DGAT2 assay, determination of IC50 values for DGAT2 inhibitors
# Format: biochemical
# Settings: hDGAT2 membrane fraction; [1-14C]decanoyl-CoA and 1,2-didecanoyl-sn-glycerol substrates; geometric mean IC50; read-out: IC50 values of Examples for inhibition of DGAT2
# Experimental: Recombinant baculovirus for the FLAG-tagged hDGAT2 was generated in SF9 insect cells using Bac-to-Bac baculovirus expression system (Invitrogen) according to the manufacturer's protocol. For the expression of hDGAT2, SF9 cells (20 L) grown in Sf900II media were infected with hDGAT2 baculovirus at a multiplicity of infection of 1 in a Wave Bioreactor System 20/50P wave bag (GE Healthcare). After 40 hours of infection, the cells were then harvested by centrifugation at 5,000×g. The cell pellets were washed by resuspending in phosphate buffered saline (PBS) and collected by centrifugation at 5,000×g. The cell paste was flash frozen in liquid N2 and stored at −80° C. until needed. All operations below were at 4° C. unless otherwise noted. […]
# For determination of IC50 values, the reactions were carried out in 384-well white Polyplates (Perkin Elmer) in a total volume of 20 μL. […] Plates were centrifuged at 2,000×g for 1 min in an Allegra 6R Centrifuge (Beckman Coulter) and then were sealed again with fresh covers before reading in a 1450 Microbeta Wallac Trilux Scintillation Counter (Perkin Elmer). DGAT2 activity was measured by quantifying the generated product [^14C]tridecanoylglycerol in the upper organic phase. […]
# Sequence of hDGAT2 (Q96PD7 whole entry): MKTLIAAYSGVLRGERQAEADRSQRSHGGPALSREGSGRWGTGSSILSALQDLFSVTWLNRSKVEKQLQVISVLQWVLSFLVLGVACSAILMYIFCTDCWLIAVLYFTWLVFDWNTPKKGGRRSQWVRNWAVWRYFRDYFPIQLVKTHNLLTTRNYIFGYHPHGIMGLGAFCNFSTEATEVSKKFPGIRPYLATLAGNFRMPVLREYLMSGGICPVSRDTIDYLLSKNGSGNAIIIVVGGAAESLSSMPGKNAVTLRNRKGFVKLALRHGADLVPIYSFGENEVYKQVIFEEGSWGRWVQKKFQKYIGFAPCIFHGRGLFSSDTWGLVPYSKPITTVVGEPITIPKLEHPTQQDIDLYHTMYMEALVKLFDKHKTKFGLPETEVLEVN
substance,measurement,value
(R)-2-(3-(2-ethoxy- phenoxy)piperidin-1-yl)- N-(1-hydroxy-2-methyl- propan-2-yl)pyrimidine- 5-carboxamide [Example 19.21],IC50,7.9 nM
